In patent US7235534B2, “Antisense strategy to modulate estrogen receptor response (ER α and/or ER β )” (Institut de Cardiologie de Montreal, priority 2001, dated 2007):

What was measured:
[1] = system: Porcine smooth muscle cells (PSMC); test: Mitogenic assay on PSMC (cell count); type: cell-based; conditions: for inhibition of PSMC proliferation mediated by FBS: 17βE 10^−7M, 72 h
Procedure: (§1) Confluent PAEC and PSMC were rinsed with DMEM and trypsinized. Cells were resuspended in 10 ml of DMEM, 5% FBS, and antibiotics, and a cell count was obtained with a Coulter Counter Z1 (Coulter Electronics, Luton, UK). PAEC and PSMC were seeded at 1×10^4 cells/well of 24-well tissue culture plates (Becton-Dickinson, Rutherford, N.J., U.S.A.) stimulated for 24 h in DMEM, 5% FBS, and antibiotics, and starved for 48 h in DMEM, 0.1% FBS, and antibiotics. […] After trypsinization, cell number was determined by using a Coulter counter.
(§2) Confluent PAEC and PSMC were rinsed with DMEM and trypsinized. Cells were resuspended in 10 mL of DMEM, 5% FBS, and antibiotics, and a cell count was obtained. PAEC and PSMC were initially seeded at 1×10^4cells/well of 24-well tissue culture plates stimulated for 24 hours in DMEM, 5% FBS, and antibiotics with or without antisense oligomers (10^−6 mol/L), and starved for 48 hours in DMEM, 0.1% FBS, and antibiotics with or without antisense oligomers (10^−6 mol/L daily) for G0 synchronization. Initial cell number for growth was determined using a Coulter counter. The cells were stimulated for 72 hours in DMEM, 1% FBS, antibiotics with or without antisense oligomers (10^−6 mol/L daily) and with or without of 17βE (Sigma). After trypsinization, cell number was determined by using a Coulter counter.

p42/44 MAPK = test: Western blot of p42/44 MAPK phosphorylation in PAEC; type: cell-based, porcine; conditions: for decrease of p42/44 MAPK phosphorylation induced by 5 min stimulation of 17βE: antagonist 10^−7M 5 min prior to 17βE 10^−8M
Procedure: Confluent PAEC and PSMC were starved for 7 hours in DMEM and antibiotics. Culture medium was removed, and cells were rinsed twice with ice-cold DMEM. PSMC were incubated on ice in DMEM with or without 17βE (10^−8M) for 30 min, incubated at 37° C. for 5, 10, 15 and 30 min, then brought back on ice. Cell were then rinsed with cold DMEM, incubated on ice in DMEM, bovine serum albumin (1 mg/ml), PDGF-BB (10 ng/ml) for 30 min, incubated at 37° C. for 5 min, and then brought back on ice. […] […] Total proteins were prepared by the addition of 500 μl of lysis buffer containing phenylmethylsulfonyl fluoride 1 mM, leupeptin 10 μg/ml, aprotinin 30 μg/ml, and NaVO3 1 mM (Sigma). Plates were incubated at 4° C. for 30 min and scraped, and the protein concentration was determined with a Bio-Rad protein kit (Bio-Rad, Hercules, Calif.). Same protein quantity for each cell type and condition were dissolved in Laemmli's buffer, boiled for 5 min in reducing conditions, separated by a 10% gradient SDS-PAGE (Protean II kit; Bio-Rad), and transblotted onto a 0.45-μm polyvinylidene difluoride membranes (Millipore Corp., Bedford, Mass.). The membranes were blocked in 5% Blotto-TTBS (5% nonfat dry milk; Bio-Rad), 0.05% Tween 20, 0.15 M NaCl, 25 mM Tris-HCl, pH 7.5) for 1 h at room temperature with gentle agitation and incubated overnight at 4° C. in 0.5% Blotto-TTBS with the addition of an anti-phospho p42/44 MAPK or an anti-phospho p38 MAPK rabbit polyclonal antiserums (α-pp42/44; dilution of 1:10 000, and α-pp38; dilution 1:5000, New England BioLabs, Beverly, Mass.). Membranes were washed with TTBS, and incubated at room temperature with an anti-rabbit IgG antibody coupled to horseradish peroxidase (dilution 1:10 000–1:20 000, Santa Cruz Biotechnology, Santa Cruz, Calif.) in 0.5% Blotto-TTBS for 30 min. […] Kaleidoscope molecular weight and SDS-plyacrylamide gel electrophoresis broad range marker proteins (Bio-Rad) were used as standards for SDS-plyacrylamide gel electrophoresis. Digital image densitometry (PDI Bioscience, Aurora, ON) was performed on x-ray film to determine relative percentages of p42/44 and p38 MAPK phosphorylation.
Confluent PAEC and PSMC were preteated with or without antisense sequences as described above for Western Blot analysis. Cells were rinsed twice with ice-cold DMEM. PSMC and PAEC were stimulated with or without 17βE (10^−8 mol/L) as previously described (Geraldes P). Briefly, PSMC were incubated on ice in DMEM with or without 17βE (10^−8 mol/L) for 30 minutes, incubated at 37° C. for 30 minutes, then brought back on ice. Cells were then rinsed with cold DMEM, incubated on ice in DMEM, bovine serum albumin (1 mg/mL), PDGF-BB (10 ng/mL) for 30 minutes, incubated at 37° C. for 5 and 30 minutes, and then brought back on ice. PAEC were incubated on ice in DMEM with or without 17βE (10^−8 mol/L) for 30 minutes, then incubated at 37° C. for 5 and 30 minutes and brought back on ice. Total proteins were prepared-by the addition of 500 μL of lysis buffer, incubated at 4° C. for 30 minutes and scraped to collect the proteins. Same quantity of protein was separated by a 10% gradient SDS-PAGE (Protean II kit; Bio-Rad), and transblotted onto a 0.45-μm polyvinylidene difluoride membranes (Millipore Corp.). The membranes were blocked for 1 hour at room temperature with gentle agitation and incubated overnight at 4° C. in 0.5% Blotto-TTBS with the addition of an antiphospho p42/44 MAPK or an antiphospho p38 MAPK rabbit polyclonal antiserums (α-pp42/44; dilution of 1:10000, and α-pp38; dilution 1:5 000, New England BioLabs, Beverly, Mass.). Membranes were washed with TTBS, and incubated at room temperature with an anti-rabbit IgG antibody coupled to horseradish peroxidase (dilution 1:10 000–1:20 000, Santa Cruz Biotechnology) in 0.5% Blotto-TTBS for 30 minutes. […] Digital image densitometry (PDI Bioscience) was performed on X-ray film to determine relative phosphorylation of p42/44 and p38 MAPK. […]

[2] = system: Porcine aortic endothelial cells (PAEC); test: Mitogenic assay on PAEC (cell count); type: cell-based; conditions: for inhibition of the 17βE mitogenic activity in PAEC: antagonist 10^−7M pretreatment
Procedure: as §1, §2

Q: Which “reversal of the anti-mitogenic activity of 17βE on PSMC” value ([1]; 4-OHT 10^−8M and 10^−7M, 17βE 10^−8M, FBS 1%) does the source give for `CC/C(=C(\c1ccc(O)cc1)c1ccc(OCCN(C)C)cc1)c1ccccc1` [4-OHT, 4-OH-Tamoxifen] here?
A: 81%

Q: And the “decrease of p42/44 MAPK phosphorylation induced by 5 min stimulation of 17βE” value (p42/44 MAPK)?
A: 44%

Q: What about the “inhibition of the 17βE mitogenic activity in PAEC” value ([2]; 17βE 10^−8M) of the same compound?
A: inhibited completely

Q: How did the “inhibition of PSMC proliferation mediated by FBS” value ([1]; FBS 1%) turn out when `C[C@]12CC[C@@H]3c4ccc(O)cc4CC[C@H]3[C@@H]1CC[C@@H]2O` [17βE, 17-beta-estradiol] was run?
A: 88%

Q: What about the “inhibition of PSMC proliferation mediated by FBS” value ([1]; FBS 5%) of the same compound?
A: 90%

Q: And the “inhibition of FBS 1% mitogenic activity on PSMC” value ([1]; 17βE 10^−8M, Example 1)?
A: inhibited completely

Q: What about the “prevention of PSMC proliferation mediated by FBS 1%” value ([1]; 17βE 10^−8 mol/L, Example 2) of the same compound?
A: 95%

Q: And the “increase of p42/44 MAPK phosphorylation” value (p42/44 MAPK; 17βE 10^−8M, 5 minutes, Example 1)?
A: 1122%

Q: What about the “increase of p42/44 MAPK phosphorylation” value (p42/44 MAPK; 17βE 10^−8M, 10 minutes) of the same compound?
A: 1074%

Q: And the “increase of p42/44 MAPK phosphorylation” value (p42/44 MAPK; 17βE 10^−8M, 15 minutes)?
A: 1420%

Q: What about the “increase of p42/44 MAPK phosphorylation” value (p42/44 MAPK; 17βE 10^−8M, 30 minutes) of the same compound?
A: 1835%

Q: And the “increase of p42/44 MAPK phosphorylation” value (p42/44 MAPK; 17βE 10^−8 mol/L, 5 minutes, Example 2)?
A: 329%

Q: What about the “induction of PAEC proliferation over FBS 1% treatment” value ([2]; 17βE 10^−8M, 72 h, Example 1) of the same compound?
A: 37%

Q: What about the “induction of PAEC proliferation over FBS 1% treatment” value ([2]; 17βE 10^−8 mol/L, Example 2) of the same compound?
A: 123%

Q: What about the “concentration of maximum induction of PAEC proliferation” value ([2]; 17βE 10^−10 to 10^−7M, DMEM 1% FBS, data not shown) of the same compound?
A: 10^−8 M

Q: How did the “reversal of the anti-mitogenic activity of 17βE on PSMC” value ([1]; Rai 10^−1M as printed, 17βE 10^−8M, FBS 1%) turn out when `O=C(c1ccc(OCN2CCCCC2)cc1)c1c(-c2ccc(O)cc2)sc2cc(O)ccc12` [Ral, Raloxifen] was run?
A: 100%

Q: What about the “decrease of p42/44 MAPK phosphorylation induced by 5 min stimulation of 17βE” value (p42/44 MAPK) of the same compound?
A: 66%

Q: What about the “inhibition of the 17βE mitogenic activity in PAEC” value ([2]; 17βE 10^−8M) of the same compound?
A: inhibited completely

Q: What does the source list for `CC/C(=C(\c1ccccc1)c1ccc(OCCN(C)C)cc1)c1ccccc1` [Tam, Tamoxifen]?
A: reversal of the anti-mitogenic activity of 17βE on PSMC ([1]; Tam 10^−7M, 17βE 10^−8M, FBS 1%): 75%; decrease of p42/44 MAPK phosphorylation induced by 5 min stimulation of 17βE (p42/44 MAPK): 36%; inhibition of the 17βE mitogenic activity in PAEC ([2]; 17βE 10^−8M): inhibited completely
